How the values were obtained:
[1] = tested on: LoVo cells; assay: Pearson correlation between oil components and cytotoxic activity; design: species or system human; details: P. lentiscus oils / LoVo cells
Procedure: The Pearson correlation and linear regression analyzes between the oil components and biological activity was also determined. To the scope all data were collected in a data base and analysed by the GraphPad Prism Version 3.0 statistical software to identify substances directly responsible of biological activity.

[2] = tested on: transplanted hamster pancreatic tumors; details: cited from earlier work

| SMILES | Pearson correlation r between oil component and cytotoxic activity [1] | growth of transplanted tumors relative to controls [2] |
| --- | --- | --- |
| CC(=O)OC1CC2CCC1(C)C2(C)C (stereo not shown) [Bornyl Acetate] | 0.8693 | – |
| C=C1CC[C@H]2O[C@]2(C)CC[C@@H]2[C@@H]1CC2(C)C [Caryophyllene Oxide] | 0.8355 | – |
| Cc1ccc(C(C)C)cc1 [Para cymene, Para Cymene] | −0.8621 | – |
| C=C(C)[C@@H]1CC=C(CO)CC1 [perillyl alcohol] | – | less than half that of controls |

From US20050163876A1, “Cancer treatment using natural plant products or essential oils or components from some pistacia species” (DATA MEDICA PADOVA S.p.A., priority 2003, published 2005)
